This note sets out measurements from publication PMC5942779, “Identification of a peptide inhibitor for the histone methyltransferase WHSC1” (PLoS ONE, 2018).

Square brackets hold non-standard residues; d marks the D form. Peptide text beside a SMILES is read from it. Nle = CCCC[C@H](N)C(=O)O

The target in one test is T1, WHSC1 941–1240 (Homo sapiens, UniProt O96028).
T1 construct: GST-tagged WHSC1 941–1240 (#51026); GST; purchased BPS Bioscience 51026
T1 sequence (O96028 941-1240): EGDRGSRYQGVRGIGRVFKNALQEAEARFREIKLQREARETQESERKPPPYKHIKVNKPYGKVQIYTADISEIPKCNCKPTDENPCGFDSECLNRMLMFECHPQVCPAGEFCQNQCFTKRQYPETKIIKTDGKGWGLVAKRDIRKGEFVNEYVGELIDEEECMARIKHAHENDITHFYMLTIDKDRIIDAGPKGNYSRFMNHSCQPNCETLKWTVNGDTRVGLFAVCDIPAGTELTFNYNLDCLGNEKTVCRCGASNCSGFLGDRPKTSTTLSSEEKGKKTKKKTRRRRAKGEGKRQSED
In words: WHSC1 941–1240 radiometric biochemical assay (3H methyl transfer from SAM to biotinylated H4 peptide). The conditions noted are these: for IC50: radiometric, 10 nM enzyme, 1 μM total SAM, 0.5 μM H4 peptide, 30 min pre-incubation, 120 min, 25°C, pH 8.0, three independent replicates. On the procedure:
(§1) An optimized 1× assay buffer containing 20 mM Tris-HCl (pH 8.0), 1 mM DTT, 0.005% Tween-20, and 0.01% bovine skin gelatin was utilized. […] The reaction was quenched after 120 minutes by adding excess (1 mM final concentration) unlabeled SAM. Quenched reactions were transferred onto streptavidin coated Flashplates (PerkinElmer), incubated for 2 hours, washed 1x with 0.1% Tween 20, and read on a Topcount instrument (PerkinElmer).
(§2) The reaction was initiated by adding 10 μL substrate mix containing peptide and SAM. Concentration–response curves in units of percent inhibition were plotted as a function of inhibitor concentration and fitted in GraphPad Prism to determine the IC50 values using a four-parameter logistic equation.

For the next test, the target named is T2, WHSC1L1 1054–1285 (Homo sapiens, UniProt Q9BZ95).
T2 construct: A WHSC1L1 construct containing amino acids 1054–1285; His-TEV (N, cleaved yes); made in house; host or cells: E. coli
T2 sequence (Q9BZ95 1054-1285): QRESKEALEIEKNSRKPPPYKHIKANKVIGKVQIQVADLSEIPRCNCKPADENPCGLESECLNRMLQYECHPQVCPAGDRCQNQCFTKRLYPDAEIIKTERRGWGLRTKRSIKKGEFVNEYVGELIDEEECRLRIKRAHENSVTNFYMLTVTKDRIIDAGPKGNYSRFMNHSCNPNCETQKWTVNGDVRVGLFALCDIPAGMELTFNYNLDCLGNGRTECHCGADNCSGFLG
Description: WHSC1L1 1054–1285 radiometric biochemical assay. Particulars: 40 nM enzyme, 6 μM total SAM, 0.8 μM peptide, 30 min pre-incubation, three independent replicates. On the procedure:
as §1, §2

Test [1] deals with T3, Avi-tagged WHSC1 941–1240 (Homo sapiens, UniProt O96028).
T3 construct: purchased BPS Bioscience 111207
T3 sequence (O96028 941-1240 limits assumed): T1 sequence (O96028 941-1240)
Description: SPR binding assay, Avi-tagged WHSC1 941–1240. For orientation: Surface plasmon resonance follows binding to a sensor surface in real time, without labels.
Description: The SPR binding assay for Avi-tagged WHSC1 941–1240 was performed at 15°C using the Biacore T200 system (GE Healthcare, Marlborough, MA). The running buffer contained 25 mM Tris-HCl pH 8.0, 150 mM NaCl, 5 mM DTT, 0.05% Tween-20, 10 μM ZnCl2, 50 μM SAM, and 2% DMSO. Biotinylated WHSC1 was immobilized on a streptavidin-coated SA chip up to 3700 RU (response units). The reference cell was blocked with PEG-biotin. Peptide inhibitor was injected at a flow rate of 50 μL/min with a 3-fold, 5-point dilution series ending at a 20 μM top concentration. Association and dissociation times were 240 and 2400 seconds, respectively. Double-referenced data were analyzed globally using a 1:1 binding model in BIAevaluation software.
WHSC1 was immobilized on a streptavidin-coated chip and peptide inhibitor was co-injected with SAM utilizing a 3-fold, 5-point dilution series ending at a 20 μM top concentration.
WHSC1 was immobilized on a streptavidin-coated chip and peptide inhibitor was either injected in the absence of cofactor (left panel), co-injected with SAH (middle panel), or co-injected with SFG (right panel) utilizing a 2-fold, 10-point dilution series ending at a 100 μM top concentration.

The target in another test is EZH1 (Homo sapiens, UniProt Q92800). In words: HMT panel biochemical assay, EZH1. The conditions noted are these: HMT selectivity panel.
Another test deals with EZH2 (Homo sapiens, UniProt Q15910). In words: HMT panel biochemical assay, EZH2. The conditions noted are these: HMT selectivity panel.
For another test, the target named is T4, G9a (Homo sapiens, UniProt Q96KQ7).
T4 sequence (Q96KQ7 1-1210): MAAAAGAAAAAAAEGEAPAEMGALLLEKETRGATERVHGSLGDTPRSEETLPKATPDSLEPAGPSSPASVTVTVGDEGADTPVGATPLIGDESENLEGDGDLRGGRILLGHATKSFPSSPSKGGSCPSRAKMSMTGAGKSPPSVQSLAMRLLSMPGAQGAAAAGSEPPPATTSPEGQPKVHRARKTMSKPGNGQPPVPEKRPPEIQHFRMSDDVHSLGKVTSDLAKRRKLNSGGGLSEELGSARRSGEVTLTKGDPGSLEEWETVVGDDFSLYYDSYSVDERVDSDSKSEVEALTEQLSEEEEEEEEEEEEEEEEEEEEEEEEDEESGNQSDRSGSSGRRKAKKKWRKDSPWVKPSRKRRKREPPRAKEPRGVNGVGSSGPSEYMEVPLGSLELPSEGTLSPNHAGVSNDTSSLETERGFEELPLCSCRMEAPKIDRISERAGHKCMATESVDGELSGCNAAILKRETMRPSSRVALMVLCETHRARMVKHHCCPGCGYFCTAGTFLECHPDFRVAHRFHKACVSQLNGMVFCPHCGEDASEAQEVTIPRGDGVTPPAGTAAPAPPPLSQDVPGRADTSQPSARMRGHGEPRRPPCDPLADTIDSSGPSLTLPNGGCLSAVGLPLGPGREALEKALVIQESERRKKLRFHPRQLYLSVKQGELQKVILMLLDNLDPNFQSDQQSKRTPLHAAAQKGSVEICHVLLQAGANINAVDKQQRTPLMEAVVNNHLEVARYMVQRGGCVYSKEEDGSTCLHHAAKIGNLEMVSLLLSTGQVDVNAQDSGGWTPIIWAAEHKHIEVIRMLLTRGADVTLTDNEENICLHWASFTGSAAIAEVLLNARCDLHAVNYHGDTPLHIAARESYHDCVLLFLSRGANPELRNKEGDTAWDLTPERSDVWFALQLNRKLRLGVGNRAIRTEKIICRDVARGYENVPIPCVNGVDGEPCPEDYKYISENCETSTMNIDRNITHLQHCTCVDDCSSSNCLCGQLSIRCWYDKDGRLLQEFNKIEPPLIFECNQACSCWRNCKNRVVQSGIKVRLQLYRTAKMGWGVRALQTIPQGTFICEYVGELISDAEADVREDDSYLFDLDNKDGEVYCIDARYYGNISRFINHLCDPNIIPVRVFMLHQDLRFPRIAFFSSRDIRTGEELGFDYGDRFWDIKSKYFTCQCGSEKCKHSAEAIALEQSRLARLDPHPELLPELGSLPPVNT
Description: HMT panel biochemical assay, G9a. Particulars: HMT selectivity panel.

In another test the target is SMYD2 (Homo sapiens, UniProt Q9NRG4). Description: HMT panel biochemical assay, SMYD2. The conditions noted are these: HMT selectivity panel.
For the next test, the target named is SETDB1 (Homo sapiens, UniProt Q15047). In words: HMT panel biochemical assay, SETDB1. Particulars: HMT selectivity panel.
The next test deals with PRMT6 (Homo sapiens, UniProt Q96LA8). Description: HMT panel biochemical assay, PRMT6. Particulars: HMT selectivity panel.
[2] abbreviates: ratio of WHSC1 941–1240 biochemical IC50 values.

Usually IC50 stands for the midpoint of a concentration-inhibition curve. Read a high IC50 as lower potency.

Sequence of EZH1 (Q92800 whole entry, species assumed): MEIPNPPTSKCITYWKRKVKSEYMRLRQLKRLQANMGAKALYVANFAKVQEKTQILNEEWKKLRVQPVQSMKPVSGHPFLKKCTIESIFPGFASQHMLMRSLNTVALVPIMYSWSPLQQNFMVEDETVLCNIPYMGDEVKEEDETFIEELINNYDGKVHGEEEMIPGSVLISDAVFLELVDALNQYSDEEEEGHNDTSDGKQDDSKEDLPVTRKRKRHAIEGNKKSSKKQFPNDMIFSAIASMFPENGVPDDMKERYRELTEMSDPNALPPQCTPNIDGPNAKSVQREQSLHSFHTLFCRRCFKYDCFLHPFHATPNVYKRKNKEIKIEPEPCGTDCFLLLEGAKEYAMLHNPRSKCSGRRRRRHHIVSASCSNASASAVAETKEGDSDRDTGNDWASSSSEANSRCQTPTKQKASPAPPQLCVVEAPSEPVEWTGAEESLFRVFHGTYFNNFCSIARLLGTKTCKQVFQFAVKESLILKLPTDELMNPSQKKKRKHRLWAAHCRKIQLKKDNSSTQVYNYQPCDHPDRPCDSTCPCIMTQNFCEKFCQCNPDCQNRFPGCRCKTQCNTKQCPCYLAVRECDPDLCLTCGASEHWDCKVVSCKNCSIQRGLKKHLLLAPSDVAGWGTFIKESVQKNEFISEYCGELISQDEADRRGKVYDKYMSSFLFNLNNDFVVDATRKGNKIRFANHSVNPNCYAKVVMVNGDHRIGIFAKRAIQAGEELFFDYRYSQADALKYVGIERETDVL
Sequence of EZH1 (O75530 whole entry partner, species assumed): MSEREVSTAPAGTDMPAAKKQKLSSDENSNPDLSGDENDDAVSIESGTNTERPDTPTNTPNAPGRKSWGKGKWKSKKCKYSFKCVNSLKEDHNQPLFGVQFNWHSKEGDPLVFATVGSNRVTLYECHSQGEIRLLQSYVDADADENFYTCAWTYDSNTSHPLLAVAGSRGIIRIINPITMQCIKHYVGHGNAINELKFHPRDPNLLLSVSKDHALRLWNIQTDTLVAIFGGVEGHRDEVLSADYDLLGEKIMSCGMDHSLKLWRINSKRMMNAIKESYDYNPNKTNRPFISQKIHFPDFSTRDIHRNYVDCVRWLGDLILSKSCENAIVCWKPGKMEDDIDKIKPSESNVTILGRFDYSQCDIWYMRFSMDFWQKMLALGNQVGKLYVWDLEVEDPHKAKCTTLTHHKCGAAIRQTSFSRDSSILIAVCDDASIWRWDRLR
Sequence of EZH1 (Q15022 whole entry partner, species assumed): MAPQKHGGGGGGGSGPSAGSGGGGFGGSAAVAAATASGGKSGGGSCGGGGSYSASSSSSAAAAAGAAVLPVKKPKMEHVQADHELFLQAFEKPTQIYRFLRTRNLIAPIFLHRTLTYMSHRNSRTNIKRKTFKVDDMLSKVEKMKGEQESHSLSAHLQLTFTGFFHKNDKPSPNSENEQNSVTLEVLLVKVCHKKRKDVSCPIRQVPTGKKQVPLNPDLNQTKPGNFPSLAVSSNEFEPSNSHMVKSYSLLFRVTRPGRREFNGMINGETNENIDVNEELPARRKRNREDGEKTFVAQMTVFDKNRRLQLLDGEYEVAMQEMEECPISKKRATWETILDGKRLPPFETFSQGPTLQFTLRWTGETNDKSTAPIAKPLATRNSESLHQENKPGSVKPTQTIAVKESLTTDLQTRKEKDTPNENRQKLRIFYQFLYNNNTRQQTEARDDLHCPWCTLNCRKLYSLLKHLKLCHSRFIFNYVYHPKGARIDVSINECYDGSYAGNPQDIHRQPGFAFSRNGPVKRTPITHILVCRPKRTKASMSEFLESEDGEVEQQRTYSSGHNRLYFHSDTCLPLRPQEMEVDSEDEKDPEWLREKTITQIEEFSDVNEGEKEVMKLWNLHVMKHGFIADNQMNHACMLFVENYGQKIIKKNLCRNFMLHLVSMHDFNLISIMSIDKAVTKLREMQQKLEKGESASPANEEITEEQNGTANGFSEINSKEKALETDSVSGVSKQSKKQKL
Sequence of EZH2 (Q15910 whole entry, species assumed): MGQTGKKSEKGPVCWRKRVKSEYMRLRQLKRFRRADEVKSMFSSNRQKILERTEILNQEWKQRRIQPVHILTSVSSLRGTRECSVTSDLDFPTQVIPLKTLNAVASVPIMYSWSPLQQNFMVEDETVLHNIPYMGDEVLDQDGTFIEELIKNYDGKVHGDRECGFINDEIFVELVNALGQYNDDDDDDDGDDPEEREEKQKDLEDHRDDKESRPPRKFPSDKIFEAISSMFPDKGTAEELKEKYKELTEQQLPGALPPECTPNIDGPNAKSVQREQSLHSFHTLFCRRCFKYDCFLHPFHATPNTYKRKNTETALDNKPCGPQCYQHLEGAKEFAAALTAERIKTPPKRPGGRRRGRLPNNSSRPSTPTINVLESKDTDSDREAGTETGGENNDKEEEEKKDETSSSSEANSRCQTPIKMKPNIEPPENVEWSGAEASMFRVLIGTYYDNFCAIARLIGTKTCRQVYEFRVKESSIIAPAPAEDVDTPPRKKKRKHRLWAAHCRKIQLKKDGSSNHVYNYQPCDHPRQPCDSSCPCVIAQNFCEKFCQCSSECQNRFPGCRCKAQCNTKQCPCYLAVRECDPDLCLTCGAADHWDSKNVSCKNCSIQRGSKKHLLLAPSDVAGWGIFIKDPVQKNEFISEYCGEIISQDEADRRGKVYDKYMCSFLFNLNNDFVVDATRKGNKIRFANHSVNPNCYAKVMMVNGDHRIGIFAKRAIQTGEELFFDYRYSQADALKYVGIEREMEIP
Sequence of EZH2 (O75530 whole entry partner, species assumed): as the sequence (O75530 whole entry partner, species assumed) above
Sequence of EZH2 (Q15022 whole entry partner, species assumed): as the sequence (Q15022 whole entry partner, species assumed) above
Sequence of SMYD2 (Q9NRG4 whole entry, species assumed): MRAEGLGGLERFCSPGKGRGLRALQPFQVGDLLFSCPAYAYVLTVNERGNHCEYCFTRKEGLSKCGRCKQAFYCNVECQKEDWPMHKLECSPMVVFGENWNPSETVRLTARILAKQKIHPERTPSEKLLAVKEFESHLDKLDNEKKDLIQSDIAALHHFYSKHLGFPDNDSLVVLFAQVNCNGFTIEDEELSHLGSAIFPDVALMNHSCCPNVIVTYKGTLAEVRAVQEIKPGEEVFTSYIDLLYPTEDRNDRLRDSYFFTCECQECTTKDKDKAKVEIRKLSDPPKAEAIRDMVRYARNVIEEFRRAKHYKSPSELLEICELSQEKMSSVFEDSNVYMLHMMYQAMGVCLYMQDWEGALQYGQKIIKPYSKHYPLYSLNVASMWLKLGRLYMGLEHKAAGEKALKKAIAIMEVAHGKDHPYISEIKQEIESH
Sequence of PRMT6 (Q96LA8 whole entry, species assumed): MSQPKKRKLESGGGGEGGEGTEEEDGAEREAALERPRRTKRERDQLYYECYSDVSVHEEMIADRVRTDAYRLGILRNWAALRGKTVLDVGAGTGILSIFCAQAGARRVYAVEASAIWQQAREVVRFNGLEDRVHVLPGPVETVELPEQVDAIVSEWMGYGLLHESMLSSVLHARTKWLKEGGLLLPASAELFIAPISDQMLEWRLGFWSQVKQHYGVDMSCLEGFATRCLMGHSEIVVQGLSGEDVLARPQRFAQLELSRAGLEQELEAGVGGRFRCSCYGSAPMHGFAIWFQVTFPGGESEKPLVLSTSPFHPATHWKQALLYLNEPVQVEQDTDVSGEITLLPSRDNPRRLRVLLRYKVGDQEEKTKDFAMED

Turning to `CCCC[C@H](NC(=O)[C@@H](NC(=O)CNC(=O)CNC(=O)[C@@H](NC(=O)[C@H](C)NC(=O)[C@@H]1CCCN1C(=O)[C@H](C)NC(=O)[C@H](CO)NC(C)=O)[C@@H](C)O)C(C)C)C(=O)N[C@@H](CCCCN)C(=O)N1CCC[C@H]1C(=O)N[C@@H](Cc1c[nH]cn1)C(=O)N[C@@H](CCCNC(=N)N)C(=O)N[C@@H](Cc1ccc(O)cc1)C(=O)N[C@@H](CCCNC(=N)N)C(N)=O` [PTD8], the values for the IC50 against WHSC1 941–1240 and against WHSC1L1 1054–1285 were 13 ± 1 µM and 190 ± 30 µM, respectively. On WHSC1 941–1240 (setting [2]), the “fold loss in WHSC1 potency compared with PTD1” value is 150 fold.

For `CCCC[C@H](NC(=O)[C@@H](NC(C)=O)C(C)C)C(=O)N[C@@H](CCCNC(=N)N)C(=O)N[C@H](C(=O)N[C@@H](CO)C(N)=O)[C@@H](C)CC` [PTD6] (Ac-V[Nle]RIS-NH2), the IC50 at WHSC1 941–1240 is 110 ± 20 µM; against WHSC1L1 1054–1285, 3 ± 0.3 µM.

As to `CCCC[C@H](NC(=O)[C@@H](NC(=O)CNC(=O)CNC(=O)[C@H](CCCNC(=N)N)NC(C)=O)C(C)C)C(N)=O` [PTD5] (Ac-RGGV[Nle]-NH2), the IC50 at WHSC1 941–1240 is 190 ± 20 µM; at WHSC1L1 1054–1285, 110 ± 10 µM.

With `CCCC[C@H](NC(=O)[C@@H](NC(=O)CNC(C)=O)C(C)C)C(=O)N[C@@H](CCCCN)C(=O)N1CCC[C@H]1C(N)=O` [PTD9] (Ac-GV[Nle]KP-NH2), the concentration for half-maximal inhibition (IC50) on WHSC1 941–1240 was determined as 130 ± 20 µM; at WHSC1L1 1054–1285, 370 ± 40 µM. Moreover, the “fold decrease in WHSC1 potency relative to PTD2” value at WHSC1 941–1240 (setting [2]) amounted to 6 fold.

Turning to Ac-GVARI-NH2 [PTD3], the IC50 on WHSC1 941–1240 was 640 ± 70 µM; on WHSC1L1 1054–1285 it was over 1000 µM. At WHSC1 941–1240 (setting [2]), the “fold decrease in WHSC1 potency relative to PTD2” value turned out to be 30 fold.

On to `CCCC[C@H](NC(=O)[C@@H](NC(=O)CNC(=O)CNC(=O)[C@H](CCCNC(=N)N)NC(=O)[C@H](CCCNC(=N)N)NC(=O)[C@H](C)NC(=O)[C@H](CC(C)C)NC(=O)[C@H](CCCNC(=N)N)NC(C)=O)C(C)C)C(=O)N[C@@H](CCCNC(=N)N)C(=O)N[C@H](C(=O)N[C@@H](CO)C(=O)NCC(=O)N[C@@H](CC(C)C)C(=O)N[C@H](C(N)=O)[C@@H](C)CC)[C@@H](C)CC` [PTD1] (Ac-RLARRGGV[Nle]RISGLI-NH2), for which the IC50 was 0.088 ± 0.005 µM on WHSC1 941–1240 and 1.1 ± 0.1 µM against WHSC1L1 1054–1285. The “fold more potent towards WHSC1 than the 5 residue Nle peptide (PTD2)” value on WHSC1 941–1240 (setting [2]) is listed as 250 fold. Further, the “SPR behaviour on the sensor surface” value in test [1] (at concentrations greater than 1 μM, affinity to WHSC1 could not be determined) is on record as “non-specific matrix interactions”.

As to `CCCC[C@H](NC(C)=O)C(=O)N[C@@H](CCCNC(=N)N)C(=O)N[C@H](C(=O)N[C@@H](CO)C(=O)NCC(N)=O)[C@@H](C)CC` [PTD7] (Ac-[Nle]RISG-NH2), the IC50 on WHSC1 941–1240 was 200 ± 40 µM; against WHSC1L1 1054–1285 it was over 1000 µM.

As to `CCCC[C@H](NC(=O)[C@@H](NC(=O)CNC(=O)CNC(C)=O)C(C)C)C(=O)N[C@@H](CCCNC(=N)N)C(N)=O` [PTD4] (Ac-GGV[Nle]R-NH2), the 50% inhibitory concentration (IC50) against WHSC1 941–1240 was 180 ± 20 µM; at WHSC1L1 1054–1285 it was 320 ± 30 µM.

Take `CCCC[C@H](NC(=O)[C@@H](NC(=O)CNC(C)=O)C(C)C)C(=O)N[C@@H](CCCNC(=N)N)C(=O)N[C@H](C(N)=O)[C@@H](C)CC` [PTD2]: in test [1] (no cofactor, 2-fold, 10-point dilution, top concentration 100 μM), the “SPR binding in the absence of cofactor” value is recorded as “no binding is observed”. Further, the half-maximal inhibitory concentration (IC50) against EZH1, against EZH2, against G9a, on SMYD2, on SETDB1 and against PRMT6 was over 200 µM each time.
